According to ChEMBL document CHEMBL1201862, “PubChem BioAssay data set” (2004):
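In this assay, cells in 96-well plates receive the compound at five concentrations for 48 hours. Endpoints are linearly interpolated between the surrounding concentrations. GI50 = concentration required for 50% inhibition of growth.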 Active and inactive are the calls of the source. Cut-off read from the data, not from the text of the source: active = GI50 up to about 1.1 µM and inactive = higher.

What was measured:
Assay in all cases: NCI tumour cell line growth inhibition, 48 h
[1] = system: CCRF-CEM
[2] = system: HOP-62
[3] = system: HCT-116
[4] = system: MDA-N
[5] = system: K562
[6] = system: TK-10
[7] = system: SK-MEL-2
[8] = system: OVCAR-8
[9] = system: OVCAR-3
[10] = system: MCF7
[11] = system: NCI-H522
[12] = system: MDA-MB-435
[13] = system: M14
[14] = system: COLO 205
[15] = system: OVCAR-4
[16] = system: DU-145
[17] = system: SF-295
[18] = system: UACC-257
[19] = system: T47D
[20] = system: HOP-92

| SMILES | GI50 [1] | GI50 [2] | GI50 [3] | GI50 [4] | GI50 [5] | GI50 [6] | GI50 [7] | GI50 [8] | GI50 [9] | GI50 [10] | GI50 [11] | GI50 [12] | GI50 [13] | GI50 [14] | GI50 [15] | GI50 [16] | GI50 [17] | GI50 [18] | GI50 [19] | GI50 [20] |
| --- | --- | --- | --- | --- | --- | --- | --- | --- | --- | --- | --- | --- | --- | --- | --- | --- | --- | --- | --- | --- |
| c1ccc(-c2cccc(-c3ccccn3)n2)nc1 [TERPYRIDINE] | 0.249 µM (active) | 0.52 µM (active) | 0.344 µM (active) | 0.441 µM (active) | 0.345 µM (active) | 0.847 µM (active) | 1.17 µM (inactive) | 0.453 µM (active) | 0.316 µM (active) | 0.394 µM (active) | 0.489 µM (active) | 0.483 µM (active) | 0.164 µM (active) | 0.254 µM (active) | 0.558 µM (active) | 0.324 µM (active) | 0.288 µM (active) | 0.425 µM (active) | 1.1 µM (active) | – |
| O=C(/C=C/c1ccc(-c2ccccc2)cc1)NCc1ccc(C(=O)NCc2ccccc2)cc1 | > 100 µM (inactive) | 57.1 µM (inactive) | > 100 µM (inactive) | > 100 µM (inactive) | – | > 100 µM (inactive) | > 100 µM (inactive) | > 100 µM (inactive) | > 100 µM (inactive) | > 100 µM (inactive) | > 100 µM (inactive) | > 100 µM (inactive) | > 100 µM (inactive) | > 100 µM (inactive) | > 100 µM (inactive) | > 100 µM (inactive) | > 100 µM (inactive) | > 100 µM (inactive) | > 100 µM (inactive) | > 100 µM (inactive) |
| CN(C(=O)C1=CCC2(CC1)OCCO2)c1ccccc1OS(=O)(=O)C(F)(F)F | 43.2 µM (inactive) | 27.4 µM (inactive) | > 100 µM (inactive) | > 100 µM (inactive) | > 100 µM (inactive) | – | > 100 µM (inactive) | 81.5 µM (inactive) | > 100 µM (inactive) | > 100 µM (inactive) | – | > 100 µM (inactive) | > 100 µM (inactive) | > 100 µM (inactive) | 57.8 µM (inactive) | > 100 µM (inactive) | 90.2 µM (inactive) | > 100 µM (inactive) | > 100 µM (inactive) | > 100 µM (inactive) |
| NC1(CCNC(=O)c2ccccc2)CCN(C(=O)c2ccccc2)CC1 | > 100 µM (inactive) | – | > 100 µM (inactive) | > 100 µM (inactive) | > 100 µM (inactive) | > 100 µM (inactive) | 34.4 µM (inactive) | > 100 µM (inactive) | – | > 100 µM (inactive) | 3.67 µM (inactive) | > 100 µM (inactive) | > 100 µM (inactive) | 41.7 µM (inactive) | – | > 100 µM (inactive) | > 100 µM (inactive) | > 100 µM (inactive) | > 100 µM (inactive) | 50.7 µM (inactive) |
| COc1cc(/C=N/NC(=O)c2ccc(NC(C)=O)cc2OC)ccc1O | > 100 µM (inactive) | – | 61.8 µM (inactive) | > 100 µM (inactive) | > 100 µM (inactive) | – | 26.9 µM (inactive) | > 100 µM (inactive) | > 100 µM (inactive) | > 100 µM (inactive) | 96.2 µM (inactive) | > 100 µM (inactive) | > 100 µM (inactive) | 56.1 µM (inactive) | > 100 µM (inactive) | 69.5 µM (inactive) | 55 µM (inactive) | – | 84.5 µM (inactive) | 22.6 µM (inactive) |
| CN[C@H]1CC[C@]23C[C@]24CC[C@]2(C)[C@@H]([C@H](C)N(C)C)CC[C@@]2(C)[C@@H]4CC[C@H]3C1(C)C | 15.1 µM (inactive) | – | 11.4 µM (inactive) | 13.9 µM (inactive) | – | 18.3 µM (inactive) | 18 µM (inactive) | 17.3 µM (inactive) | 14.3 µM (inactive) | 15.6 µM (inactive) | 17.2 µM (inactive) | 14.1 µM (inactive) | 12.2 µM (inactive) | 12.1 µM (inactive) | 17.7 µM (inactive) | 14.4 µM (inactive) | 14.6 µM (inactive) | 15.1 µM (inactive) | 14.6 µM (inactive) | 10.9 µM (inactive) |
| O=Cc1c(-c2ccccc2)nc2ccccc2c1O | – | 92.7 µM (inactive) | 41.9 µM (inactive) | 15.6 µM (inactive) | – | > 100 µM (inactive) | > 100 µM (inactive) | 97.5 µM (inactive) | 49.8 µM (inactive) | 39.3 µM (inactive) | 50.8 µM (inactive) | 21.3 µM (inactive) | 68.2 µM (inactive) | 26.7 µM (inactive) | > 100 µM (inactive) | > 100 µM (inactive) | 97.9 µM (inactive) | 72.8 µM (inactive) | 64.6 µM (inactive) | > 100 µM (inactive) |
| C#C[C@]1(O)CC[C@H]2[C@@H]3CCc4cc(OC(=O)c5cccc6cc7ccccc7nc56)ccc4[C@H]3CC[C@@]21C | 12.8 µM (inactive) | 38.2 µM (inactive) | 24.3 µM (inactive) | 25.5 µM (inactive) | > 100 µM (inactive) | – | 29.2 µM (inactive) | 40.8 µM (inactive) | 21.4 µM (inactive) | 25.2 µM (inactive) | 15.5 µM (inactive) | 31.2 µM (inactive) | 31 µM (inactive) | 11 µM (inactive) | 38.4 µM (inactive) | 23.5 µM (inactive) | – | 63.4 µM (inactive) | 13.9 µM (inactive) | 66.5 µM (inactive) |
